Like-named read-outs stand apart in the source and are kept apart here. Marks after values point to notes of the source that are not given here. Bridges are numbered along the chain shown (N, C = ends). Where no end group is shown, it is not given here.
How the values were obtained:
[1] = tested on: K. pneumoniae ESBL 344/17; test: Checkerboard titration (FICI); type: cell-based, Klebsiella pneumoniae
Protocol: (§1) The combined antimicrobial action of AMPs and other antimicrobial compounds was assessed using checkerboard titration approach under the conditions similar to that of the microdilution assay. According to checkerboard titration template, one component (A) of the combination was diluted along the rows of the plate, while the other (B) was diluted down the columns, thereby creating the variety of mixtures with different concentrations of tested compounds. 2.5 μl of corresponding solutions of the components A and B were added into each well of the plate. Into the first column and the last row the same amount of 10 mM sodium phosphate buffer, pH 7.4, containing 0.1% of BSA was introduced instead of the second component. Thus, all wells contained 5 μl of antimicrobial compounds solutions (solo or in combination). The same volume of bacterial suspension, prepared as described for microdilution assay, was added into each well. The results were recorded after the overnight incubation, visually indicating the presence or absence of the microbial growth in the corresponding wells. Based on the obtained data the isobolograms of combined action were plotted and/or Fractional Inhibitory Concentration Indices (FICI) were calculated. […] Depending on the minimal value of the FICI the combined effect of the combination was classified as antagonism (FICI > 2), independent action (1 < FICI ≤ 2), additivity (0.5 < FICI ≤ 1) or synergy (FICI ≤ 0.5), as is recommended in the literature and due to some drawbacks of the serial dilution method (Hsieh et al., [1993]; Orhan et al., [2005]; Fehri et al., [2007]). FICIs were assessed in 3–6 independent experiments and median values were used to define the nature of interaction.

A. baumannii 7226/16 [2] = test: Checkerboard titration (FICI); type: cell-based, Acinetobacter baumannii
Protocol: as §1

E. coli ESBL 521/17 [3] = test: Checkerboard titration (FICI); type: cell-based, Escherichia coli
Protocol: as §1

P. aeruginosa MDR 522/17 [4] = test: Checkerboard titration (FICI); type: cell-based, Pseudomonas aeruginosa
Protocol: as §1

A. baumannii 7226/16 [5] = test: microbe, parasite or virus in culture; type: cell-based; conditions: Acinetobacter baumannii; A. baumannii 7226/16, drug-resistant clinical isolate
Protocol: (§2) Prior to the “checkerboard” synergy test the minimal inhibitory concentrations (MIC) of individual substances were determined using broth microdilution assay. Testing was performed in 60-well polystyrene Terasaki microplates with V-shaped bottom generally according to the guidelines of the European Committee for Antimicrobial Susceptibility Testing with subtle modifications designed for AMP testing (Tossi et al., [1997]; Wiegand et al., [2008]). Cultivation of bacteria was carried out in 2.1% Müller-Hinton broth at 37°C with shaking. Two-fold serial dilutions of peptides, antibiotics and other antimicrobials were made with 10 mM sodium phosphate buffer, pH 7.4, containing 0.1% of BSA. The plates were preliminary incubated with 0.1% BSA for 1 h at 37°C to reduce a non-specific binding of peptides to the plates. After that BSA was removed, and serial dilutions were added into the plate wells in triplicates followed by the same volume of the suspension of bacterial cells in logarithmic phase of growth in concentration of 1 × 10^6 CFU/ml. After the 18 h overnight incubation at 37°C, the MIC value for each compound was determined as its lowest concentration completely inhibiting the visible growth of bacteria. The final results were calculated as median values based on 3–6 independent experiments.

E. coli ESBL 521/17 [6] = test: microbe, parasite or virus in culture; type: cell-based; conditions: Escherichia coli, ESBL521/17; E. coli ESBL 521/17, drug-resistant clinical isolate; square brackets = twice the maximal tested concentration
Protocol: as §2

[7] = tested on: K. pneumoniae ESBL 344/17; test: microbe, parasite or virus in culture; type: cell-based; conditions: Klebsiella pneumoniae, ESBL344/17; K. pneumoniae ESBL 344/17, drug-resistant clinical isolate
Protocol: as §2

S. aureus 1399/17 [8] = test: microbe, parasite or virus in culture; type: cell-based; conditions: Staphylococcus aureus
Protocol: as §2

P. aeruginosa MDR 522/17 [9] = test: microbe, parasite or virus in culture; type: cell-based; conditions: Pseudomonas aeruginosa, MDR522/17; P. aeruginosa MDR 522/17, drug-resistant clinical isolate
Protocol: as §2

S. aureus 1399/17 [10] = test: Checkerboard titration (FICI); type: cell-based, Staphylococcus aureus
Protocol: as §1

bacteria = test: Checkerboard titration, synergy cases with conventional antibiotics (all tested bacteria); type: cell-based; conditions: in vitro, human AMPs
Protocol: as §1, with “According” for “The combined antimicrobial action of AMPs and other antimicrobial compounds was assessed using checkerboard titration approach under the conditions similar to that of the microdilution assay. According”

MRSA ATCC 33591 = test: microbe, parasite or virus in culture; type: cell-based, Staphylococcus aureus; conditions: median of 3–6 experiments, square brackets = twice the maximal tested concentration
[11] = antibiotic in combination with ChBac3.4
[12] = antibiotic in combination with PG-1
[13] = S. aureus 1399/17, drug-resistant clinical isolate, read-out: MIC

| MIC (A. baumannii 7226/16 [5]) [µM] | MIC (E. coli ESBL 521/17 [6]) [µM] | MIC [7] [µM] | MIC (S. aureus 1399/17 [8]; [13]) [µM] | MIC (P. aeruginosa MDR 522/17 [9]) [µM] | Molecule | Minimal FICI [1, 11] | Minimal FICI [1, 12] | Minimal FICI (A. baumannii 7226/16 [2]; [11]) | Minimal FICI (A. baumannii 7226/16 [2]; [12]) | Minimal FICI (E. coli ESBL 521/17 [3]; [11]) | Minimal FICI (E. coli ESBL 521/17 [3]; [12]) | Minimal FICI (P. aeruginosa MDR 522/17 [4]; [11]) | Minimal FICI (P. aeruginosa MDR 522/17 [4]; [12]) | Minimal FICI (S. aureus 1399/17 [10]; [11]) | Minimal FICI (S. aureus 1399/17 [10]; [12]) | MIC (S. aureus 1399/17 [8]; 1399/17) [µM] | AMP concentration in synergy cases with conventional antibiotics (bacteria) [µM] | MIC (MRSA ATCC 33591) |
| --- | --- | --- | --- | --- | --- | --- | --- | --- | --- | --- | --- | --- | --- | --- | --- | --- | --- | --- |
| 6.25 | 1 | 0.25 | > 50 | 1 | NCC[C@H](O)C(=O)N[C@@H]1C[C@H](N)[C@@H](O[C@H]2O[C@H](CN)[C@@H](O)[C@H](O)[C@H]2O)[C@H](O)[C@H]1O[C@H]1O[C@H](CO)[C@@H](O)[C@H](N)[C@H]1O [Amikacin] | 0.38 | 0.31 | 0.5^* | 0.38^* | 0.62 | 0.38 | 0.5 | 0.5 | 0.125^* | 1.0 |  |  |  |
|  |  |  |  |  | GIINTLQKYYCRVRGGRCAVLSCLPKEEQIGKCSTRGRKCCRRKK (disulfide 11-40, 18-33, 23-41 (inferred)) [hBD-3] |  |  |  |  |  |  |  |  |  |  |  | 0.08 to 3.75 |  |
| > 50 | > 50 | 50 | > 50 | > 50 | CC[C@H]1OC(=O)[C@H](C)[C@@H](O[C@H]2C[C@@](C)(OC)[C@@H](O)[C@H](C)O2)[C@H](C)[C@@H](O[C@@H]2O[C@H](C)C[C@H](N(C)C)[C@H]2O)[C@](C)(O)C[C@@H](C)C(=O)[C@H](C)[C@@H](O)[C@]1(C)O [Erythromycin] | 0.25^* | 0.25^* | 0.75 | 1.12 | 0.38^* | 0.62 | 0.38^* | 0.5^* | 0.5^* | 0.75 |  |  |  |
|  |  |  |  |  | GIGDPVTCLKSGAICHPVFCPRRYKQIGTCGLPGTKCCKKP (disulfide 8-37, 15-30, 20-38 (inferred)) [hBD-2] |  |  |  |  |  |  |  |  |  |  |  | 0.2 to 1.6 | >100 [200] μM |

| Molecule | MIC (A. baumannii 7226/16 [5]) [µM] | MIC (E. coli ESBL 521/17 [6]) [µM] | MIC [7] [µM] | MIC (S. aureus 1399/17 [8]; [13]) [µM] | MIC (P. aeruginosa MDR 522/17 [9]) [µM] | Minimal FICI [1, 11] | Minimal FICI [1, 12] | Minimal FICI (A. baumannii 7226/16 [2]; [11]) | Minimal FICI (A. baumannii 7226/16 [2]; [12]) | Minimal FICI (E. coli ESBL 521/17 [3]; [11]) | Minimal FICI (E. coli ESBL 521/17 [3]; [12]) | Minimal FICI (P. aeruginosa MDR 522/17 [4]; [11]) | Minimal FICI (P. aeruginosa MDR 522/17 [4]; [12]) | Minimal FICI (S. aureus 1399/17 [10]; [11]) | Minimal FICI (S. aureus 1399/17 [10]; [12]) | MIC (S. aureus 1399/17 [8]; 1399/17) [µM] | AMP concentration in synergy cases with conventional antibiotics (bacteria) [µM] | MIC (MRSA ATCC 33591) |
| --- | --- | --- | --- | --- | --- | --- | --- | --- | --- | --- | --- | --- | --- | --- | --- | --- | --- | --- |
| C[C@@H](O)[C@H]1C(=O)N2C(C(=O)O)=C(S[C@@H]3CN[C@H](C(=O)N(C)C)C3)[C@H](C)[C@H]12 [Meropenem] | > 50 | 0.04 | 0.04 |  | 25 | 1.0 | 1.0 | 0.5^* | 0.38^* | 1.0 | 1.0 | 0.62 | 1.0 | 0.31^* | 0.25^* | 6.25 |  |  |
